Values joined by “and” are separate entries in the source; they are usually repeats but may differ in a detail not shown here. Identical values can stand only once.
Tests used:
Type in all cases: in vivo
[1] = test system: Ipomoea hederacea (L.) JACQ. (IPOHE); test: Postemergence herbicidal mixtures for weed control in direct seeded rice (greenhouse, visual % injury after 3 weeks); settings: for % Injury Ob: IPOHE
[2] = test system: Ischaemum rugosum SALISB. (ISCRU); test: Postemergence herbicidal mixtures for weed control in direct seeded rice (greenhouse, visual % injury)
[3] = test system: Cyperus esculentus L. (CYPES); test: as above; settings: for % Injury Ob: CYPES
[4] = test system: Polygonum persicaria L. (POLPE); test: as above
[5] = test system: Eleocharis kuroguwai OHWI (ELOKU); test: Herbicidal mixtures for weed control in transplanted paddy rice (in-water application, visual % injury)
Outline: (§1)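 Paddy flood, greenhouse ~29/26° C; weeds at 2nd–3rd true leaf stage. Herbicide stocks (acetone/2.5% crop oil concentrate) injected into water; solvent blank controls. Visual % injury, 0–100, at 3 weeks.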

[6] = test system: Scirpus maritimus L. (SCPMA); test: as above
Outline: as §1

| SMILES | % Injury Ob ([1]; 4.38 g/ha alone) [%] | % Injury Ob ([1]; 8.75 g/ha alone) [%] | % Injury Ob ([1]; 17.5 g/ha alone) [%] | % Injury IPOHE Ob ([1]; alone 4.38 g/ha) | % Injury IPOHE Ob ([1]; alone 17.5 g/ha) | % Injury ISCRU Ob ([2]; alone 8.75 g/ha) [%] | % Injury ISCRU Ob ([2]; alone 17.5 g/ha) [%] | % Injury 11 DAA CYPES Ob ([3]; alone 8.75 g/ha) [%] | % Injury 11 DAA CYPES Ob ([3]; alone 17.5 g/ha) [%] | % Injury 21 DAA CYPES Ob ([3]; alone 8.75 g/ha) [%] | % Injury 21 DAA CYPES Ob ([3]; alone 17.5 g/ha) [%] | % Injury Ob ([3]; 4.38 g/ha alone) [%] | % Injury Ob ([3]; 8.75 g/ha alone) [%] | % Injury CYPES Ob ([3]; alone 4.38 g/ha) | % Injury POLPE Ob ([4]; alone 8.75 g/ha) [%] | % Injury POLPE Ob ([4]; alone 17.5 g/ha) [%] | % Injury Ob ([5]; 35 g/ha alone) [%] | % Injury Ob ([5]; 70 g/ha alone) [%] | % Injury Ob ([6]; 35 g/ha alone) [%] | % Injury Ob ([6]; 70 g/ha alone) [%] |
| --- | --- | --- | --- | --- | --- | --- | --- | --- | --- | --- | --- | --- | --- | --- | --- | --- | --- | --- | --- | --- |
| COC(=O)c1nc(-c2ccc(Cl)c(OC)c2F)cc(N)c1Cl [Compound A Methyl, 4-amino-3-chloro-6-(4-chloro-2-fluoro-3-methoxyphenyl)pyridine-2-carboxylic acid methyl ester] | 20 | 40 | 75 | 10% and 0% | 85% and 75% | 50 | 55 | 60 | 70 | 100 | 99 | 40 | 60 | 70% and 85% | 50 | 90 |  |  |  |  |
| COc1c(Cl)ccc(-c2cc(N)c(Cl)c(C(=O)O)n2)c1F [Compound A TEA, 4-amino-3-chloro-6-(4-chloro-2-fluoro-3-methoxyphenyl)pyridine-2-carboxylic acid] |  |  |  |  |  |  |  |  |  |  |  |  |  |  |  |  | 30 | 20 | 0 | 50 |

From patent publication US10556865B2, “Synergistic herbicidal composition containing certain pyridine or pyrimidine carboxylic acids and certain cereal and rice herbicides” (Dow AgroSciences, LLC, priority 2007, dated 2020)
